The test system of one data set is HCT116 cells. The data set can be described thus: MTT assay, proliferation of HCT116 cells. Format: cell-based. As to conditions: Homo sapiens, HCT-116, 48 h, read-out: In vitro cytotoxicity (IC50) HCT116. How it is done:
(§1) The in vitro antitumor activities of the synthesized compounds 7a-l and 8a-l against five human cancer cells were evaluated in MTT assays using 5-fluorouracil (5-FU) and harmine as positive controls. These cells are human hepatocellular carcinoma cells (SMMC-7721 and Hep G2), human colon cancer cell lines (HCT116), human bladder carcinoma cells (EJ), and human lung cancer cells (H460).
(§2) Hepatocellular carcinoma cells (SMMC-7721 and Hep G2), Human colon cancer cell lines (HCT116), human bladder carcinoma cells (EJ) or human lung cancer cells (H460) at 10^4 cells per well were cultured in 10% FBS DMEM in 96-well flat-bottom microplates overnight. The cells were incubated in triplicate with, or without, different concentrations of each test compound for 48 h. During the last 4 h incubation, 30 μL of tetrazolium dye (MTT) solution (5 mg mL^−1) was added to each well. The resulting MTT-formazan crystals were dissolved in 150 μL DMSO, and absorbance was measured spectrophotometrically at 570 nm using an ELISA plate reader. The inhibition induced by each test compound at the indicated concentrations was expressed as a percentage. The concentration required for 50% inhibition (IC50) was calculated using the software (GraphPadPrism Version 4.03).

Data set [1] relates to SMMC-7721 cells. The data set can be described thus: MTT assay, proliferation of SMMC-7721 cells. Format: cell-based, human. Conditions: Homo sapiens. How it is done:
as §1, §2
(Tetrazolium dyes change colour on reduction, which living cells bring about.)

Another data set relates to LO2 cells. Put plainly: MTT assay, proliferation of normal liver LO2 cells. Format: cell-based, human. As to the method:
Given the strong growth inhibitory activity of 8h in vitro, it was profiled for antitumor selectivity by examining its inhibitory effects on the growth of SMMC-7721 cells and LO2 cells (human hepatocellular normal cells).
Figure 3 (A) Inhibitory effects of 8h on the proliferation of SMMC-7721 and LO2 cells. Cells were incubated with the indicated concentrations of 8h for 48 h. Cell proliferation was assessed using the MTT assay. Data are means ± SD of the inhibition (%) from three independent experiments. (B) Inhibitory effects of 5h, 8h, and SA or the vehicle control against SMMC-7721 and LO2 cells. SMMC-7721 and LO2 cells were incubated with the indicated compounds at 25 μM for 48 h, and cell proliferation was assessed by the MTT assay. Data are means ± SD of the inhibition (%) from three independent experiments. *P < 0.01 versus control of SMMC-7721, ^#P < 0.01 inhibitory effects of 8h in SMMC-7721 versus LO2 cells.
as §2

The test system of the next data set is H460 cells. The data set can be described thus: MTT assay, proliferation of H460 cells. Conditions: NCI-H460, 48 h, H460 human lung cancer cells, read-out: In vitro cytotoxicity (IC50) H460. Format: cell-based. As to the method:
as §1, §2

For a further data set, the system named is Hep G2 cells. Put plainly: MTT assay, proliferation of Hep G2 cells. The data set is classed as cell-based. As to conditions: Homo sapiens, HepG2, 48 h, read-out: In vitro cytotoxicity (IC50) Hep G2. As to the method: as §1, §2
The subject of data set [2] is Bax, Bcl-2, caspase-3, PARP in SMMC-7721 cells. The data set can be described thus: Western blot assay of apoptosis-related proteins. The data set is classed as cell-based, human. As to the method: Next, to investigate the preliminarily molecular mechanisms underlying the cell apoptosis profiles in 8h-treated cells, we conducted western blot analysis to examine the expression of apoptosis proteins in SMMC-7721 cells. It is well known that Bcl-2 and Bax are anti-apoptotic or pro-apoptotic regulator proteins, respectively, and caspase-3 is the execution factor of apoptosis. In addition, PARP is one of several known cellular substrates for caspase-3 and the cleavage of PARP by caspase-3 is considered to be a hallmark of apoptosis.
Figure 5 Effect of 8h on the expression of apoptosis-related proteins in SMMC-7721 cells. (A) The expression of Bax, Bcl2, caspase 3 and β-actin was examined by western blot analysis. SMMC-7721 cells were incubated with, or without, 8h at the indicated concentrations for 48 h and the levels of protein expression were detected using specific antibodies, and β-actin was used as the control. Data shown are representative images of each protein for three separate experiments. (B) Quantitative analysis: the relative levels of each protein compared to control β-actin were determined by densimetric scanning. Data are expressed as means ± SD from three separate experiments. *P < 0.01 vs control.
The mechanisms of the cell apoptosis were determined by western blot assay. SMMC-7721 cells at 1.5 × 10^5/mL were treated with 3.5, 7.0, or 14 μM 8h or vehicle control for […]. After harvested and lyzed, the cell lysates (50 μg/lane) were separated by SDS-PAGE (12% gel) and transferred onto nitrocellulose membranes. After blocked with 5% fat-free milk, the target proteins were probed with anti-Bcl-2, anti-Bax, anti-caspase-3, anti-PARP, and anti-β-actin antibodies (Cell Signaling, Boston), respectively. The bound antibodies were detected by HRP-conjugated second antibodies and visualized using the enhanced chemiluminescent reagent.
In general terms: Immunoblotting shows a protein as a band on a membrane.

For data set [3], the system named is SMMC-7721 cells. The data set can be described thus: Mitochondrial membrane potential assay (JC-1). The data set is classed as cell-based, human. Conditions: 14 μM, 48 h (method b112 says 24 h). As to the method: The mitochondrial pathway plays an important role in cell apoptosis. To determine whether mitochondria is involved in the apoptosis-inducing effect of 8h, changes in mitochondrial membrane potential were investigated with a fluorescent probe JC-1. JC-1 is a lipophilic cationic dye which facilitates the penetration of mitochondrial membrane due to the decrease of membrane potential, indicated by a fluorescence shift from red to green. The cells were treated with vehicle alone, with different concentrations of 8h (7.0 or 14 μM), or 14 μM 5-FU for 48 h, and then stained with JC-1. […] The percentage of cells emitting green fluorescence reached 57% at the higher dose of 14 μM. The observations indicate that 8h plays a role in the dissipation of mitochondrial membrane potential and the apoptosis effect of 8h is associated with mitochondrial depolarization in cells.
Mitochondrial membrane potential was assessed using a Beyotime (China) kit with JC-1. Briefly, the SMMC-7721 cells in the logarithmic growth phase were treated with 8h (7.0 or 14 μM), 5-FU (14 μM), or vehicle control for 24 h. The cells were harvested, and then labeled with JC-1 in accordance with the manufacturer’s instructions. The samples labeled with JC-1 were analyzed via flow cytometry. For the detection of JC-1, excitation was set at 530 nm, and emissions collected at 585 nm.

Data set [4] deals with human cancer cells (SMMC-7721, Hep G2, HCT116, EJ, H460). Put plainly: MTT assay, summary statements across several human cancer cell lines. The data set is classed as cell-based. As to the method:
as §1, §2

The mark [5] stands for this setting: western blot, 3.5, 7.0 or 14 μM.

Structures are written as SMILES.

For the compound `Cc1nc(C(=O)NCCCCCNC(=O)c2ccccc2O)cc2c1[nH]c1ccccc12` [8h, N-(5-(2-Hydroxybenzamido)pentyl)-1-methyl-9H-pyrido[3,4-b]indole-3-carboxamide], the IC50 with HCT116 cells was 8.25 µM; with SMMC-7721 cells [1] (SMMC-7721, 48 h, read-out: In vitro cytotoxicity (IC50) SMMC-7721, MTT assay, 48 h, SMMC-7721 human hepatocellular carcinoma cells), 6.97 µM; in the data set with LO2 cells (L02, MTT assay, 48 h, LO2 human hepatocellular normal cells, read-out: IC50 against liver normal LO2 cells), 55.2 µM; in the data set with H460 cells it was 13.1 µM; in the data set with Hep G2 cells it was 7.12 µM; in data set [4] (Homo sapiens, SMMC-7721, Hep G2, HCT116, MTT, read-out: IC50 values for liver and colon cancer cells growth (range over cell lines)), 6.97 to 8.25 µM. In addition, the inhibition at 25 µM with SMMC-7721 cells [1] (SMMC-7721, 25 μM, 48 h, MTT assay, read-out: Inhibition of SMMC-7721 cell proliferation) was roughly 90%. The “Inhibitory effect on LO2 cells” value in the data set on LO2 cells (25 μM, 48 h, MTT assay) is “little inhibitory effects”. Besides, the “Selectivity: IC50 on SMMC-7721 fold lower than against LO2 cells” value in the data set with LO2 cells (SMMC-7721 vs LO2) worked out at 9 fold. For the same compound, the “Growth inhibitory activity on non-cancer LO2 cells” value in the data set with LO2 cells (concentrations up to 25 μM, 48 h, MTT) was “no apparent growth inhibitory activity”. The “Expression of Bcl-2” value in data set [2] (setting [5]) is listed as “dramatically reduced in a concentration-dependent manner”. The “Protein levels of Bax” value in data set [2] (setting [5]) was “significantly increased”. For the same compound, the “Cleavage of PARP and caspase-3” value in data set [2] (western blot, vs control group) is “more significant cleavage of both PARP and caspase-3 than the control group”. Also, the “Percentage of cells emitting green fluorescence (JC-1)” value in the data set with SMMC-7721 cells [3] was found to be 57%. In addition, the “IC50 fold lower than that of 5-FU” value in data set [4] (liver and colon cancer cells) is listed as 4~6 fold.

A word on the IC50: it is the concentration that inhibits the measured activity by half.
